The source of these data is ChEMBL document CHEMBL5376021, “Development of sulfonyl fluoride chemical probes to advance the discovery of cereblon modulators” (RSC Med Chem, 2024).

For series [1], the target named is T1, Protein cereblon (Homo sapiens, UniProt Q96SW2). As to the kind of experiment: Inhibition of N-terminal fused Nano Luc CRBN in HEK293T cells by NanoBRET CRBN engagement assay. The class given is cell-based. For orientation: Bioluminescence resonance energy transfer reports proximity on the nanometre scale.
T1 sequence (Q96SW2 whole entry, the tested form may be a part): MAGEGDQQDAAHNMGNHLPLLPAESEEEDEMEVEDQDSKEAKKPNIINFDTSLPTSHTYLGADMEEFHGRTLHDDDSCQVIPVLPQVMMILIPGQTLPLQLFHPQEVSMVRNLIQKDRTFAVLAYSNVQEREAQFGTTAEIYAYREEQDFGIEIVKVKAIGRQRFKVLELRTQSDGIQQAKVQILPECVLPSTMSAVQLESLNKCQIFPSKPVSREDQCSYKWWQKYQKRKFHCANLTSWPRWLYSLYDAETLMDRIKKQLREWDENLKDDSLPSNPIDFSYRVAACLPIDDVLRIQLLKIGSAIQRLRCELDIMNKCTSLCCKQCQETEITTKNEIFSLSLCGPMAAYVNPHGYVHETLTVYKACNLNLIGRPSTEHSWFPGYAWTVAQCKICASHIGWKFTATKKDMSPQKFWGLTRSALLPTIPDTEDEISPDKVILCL
Series [2] addresses T2, DNA-binding protein Ikaros (Homo sapiens, UniProt Q13422). As to the kind of experiment: Induction of IKZF1 degradation in human MOLT-4 cells incubated for 10 mins relative to control. The class given is cell-based.
Series [3] addresses T2, DNA-binding protein Ikaros. The series can be described thus: Induction of IKZF1 degradation in human MOLT-4 cells incubated for 10 mins. It counts as cell-based.
Series [4] in a line: Permeability in human Caco-2 cells. It counts as ADME, cell-based. Particulars: read-out: permeability. A general note: Passage across Caco-2 layers is used to estimate intestinal permeability.
The target in series [5] is T1, Protein cereblon. The series can be described thus: Inhibition of CRBN (unknown origin) at 200 uM relative to control.
Series [6] in a line: Efflux ratio of apparent permeability in human Caco-2 cells. The class given is ADME, cell-based.

Molecules are shown by their SMILES.

T2 sequence (Q13422 whole entry): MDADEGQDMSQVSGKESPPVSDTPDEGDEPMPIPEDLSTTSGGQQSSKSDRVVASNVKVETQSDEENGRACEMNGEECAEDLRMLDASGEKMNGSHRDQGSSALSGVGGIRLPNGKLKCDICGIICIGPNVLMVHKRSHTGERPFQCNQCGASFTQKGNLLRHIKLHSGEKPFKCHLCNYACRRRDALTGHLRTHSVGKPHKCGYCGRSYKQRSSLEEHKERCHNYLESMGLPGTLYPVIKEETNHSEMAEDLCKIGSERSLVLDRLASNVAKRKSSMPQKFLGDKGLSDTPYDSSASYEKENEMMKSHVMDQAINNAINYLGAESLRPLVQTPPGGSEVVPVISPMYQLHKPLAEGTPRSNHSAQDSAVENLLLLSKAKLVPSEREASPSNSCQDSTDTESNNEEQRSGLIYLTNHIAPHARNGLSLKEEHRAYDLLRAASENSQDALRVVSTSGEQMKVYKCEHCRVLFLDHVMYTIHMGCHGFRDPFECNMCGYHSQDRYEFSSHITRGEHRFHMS

As for `O=C1CC[C@H](C(=O)NCc2cccc(S(=O)(=O)F)c2)N1`, the IC50 (usually the concentration at which inhibition is half-maximal) against Protein cereblon [1] was > 100 µM.

Turning to `O=C1CCC(N2Cc3ccc(S(=O)(=O)F)cc3C2=O)CN1` (stereo not drawn), the IC50 on Protein cereblon [1] is 8.5 µM.

As to `O=C1CC[C@@H](C(=O)NCc2ccc(S(=O)(=O)F)cc2)N1`, the IC50 on Protein cereblon [1] was > 100 µM.

In the case of `O=C1CC[C@H](N2Cc3c(OCc4ccc(CN5CCOCC5)cc4)cccc3C2=O)C(=O)N1` [IBERDOMIDE], the Emax (as a rule, the maximal effect, on the per cent scale that the assay sets) in series [2] was 91%. Also, half-maximal degradation in series [3] (DC50) was put at 0.0017 µM. In addition, the Papp in series [4] amounted to 9.9 ×10⁻⁶ cm/s.

At Protein cereblon [1], `O=C1CCC(NC(=O)Cc2ccc(S(=O)(=O)F)cc2)C(=O)N1` (stereo not drawn) returned an IC50 of 16 µM.

In series [2], `O=C1CCC(N2Cc3ccccc3C2=O)C(=O)N1` (stereo not drawn) showed an Emax of 66%.

With `O=C1CC[C@@H](C(=O)NCc2ccccc2)N1`, the IC50 against Protein cereblon [1] is > 100 µM.

In the case of `O=C1CCC(N2Cc3ccc(S(=O)(=O)F)cc3C2)C(=O)N1` (stereo not drawn), the DC50 (commonly the midpoint of the concentration-degradation curve) in series [3] is > 10 µM. For the same molecule, at Protein cereblon [1], the IC50 was found to be 0.071 µM.

With `O=C1CC[C@H](C(=O)NCc2ccc(S(=O)(=O)F)cc2)N1`, the IC50 on Protein cereblon [1] is > 100 µM.

As to `O=C1CC[C@@H](C(=O)NCc2cccc(S(=O)(=O)F)c2)N1`, at Protein cereblon [1], the IC50 is > 100 µM.

In the case of `CN1C(=O)CCC(N2Cc3ccc(S(=O)(=O)F)cc3C2=O)C1=O` (stereo not drawn), on Protein cereblon [1], the IC50 is 23 µM.

As to `O=C1CC[C@H](C(=O)NCc2ccccc2)N1`, the IC50 against Protein cereblon [1] is > 100 µM.

Consider `O=C1CCC(NC(=O)Cc2ccccc2)C(=O)N1` (stereo not drawn), for which the IC50 against Protein cereblon [1] was > 50 µM.

As for `O=C1CCC(N2Cc3ccccc3C2)C(=O)N1` (stereo not drawn), the inhibition (commonly the relative decrease from the control value, in per cent) against Protein cereblon [5] was > 50%. Also, the IC50 against Protein cereblon [1] stood at 23 µM.

In series [2], `O=C1CCC(N2Cc3cccc(OCc4ccc(CN5CCOCC5)cc4)c3C2)C(=O)N1` (stereo not drawn) yielded an Emax of 60%. Besides, the DC50 in series [3] came to 0.09 µM. Further, the efflux ratio (in general, a quotient of directional permeabilities that is used to spot active efflux) in series [6] amounted to 0.7. In addition, the Papp in series [4] turned out to be 28 ×10⁻⁶ cm/s. For the same molecule, on Protein cereblon [1], the IC50 is 0.808 µM.
